Values joined by “and” are separate entries in the source; they are usually repeats but may differ in a detail not shown here. Equal entries are not always repeated.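 These data come from cells grown in 96-well plates and exposed to compound for 48 hours at five concentrations. Here, GI50 denotes the concentration required for 50% inhibition of growth. TGI: concentration producing complete growth inhibition.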
Columns and labels:
Assay in all cases: growth of human tumour cells (NCI), 48 h
NCI-H226 lung = tested on: NCI-H226 lung
OVCAR-3 ovarian = tested on: OVCAR-3 ovarian
HS 578T breast = tested on: HS 578T breast
SW-620 colon = tested on: SW-620 colon
HL-60(TB) leukemia = tested on: HL-60(TB) leukemia
DU-145 prostate = tested on: DU-145 prostate
T-47D breast = tested on: T-47D breast
LOX IMVI melanoma = tested on: LOX IMVI melanoma
SNB-75 CNS = tested on: SNB-75 CNS
NCI-H23 lung = tested on: NCI-H23 lung

| SMILES | GI50 (NCI-H226 lung) | TGI (NCI-H226 lung) | GI50 (OVCAR-3 ovarian) | TGI (OVCAR-3 ovarian) | GI50 (HS 578T breast) | TGI (HS 578T breast) | GI50 (SW-620 colon) | TGI (SW-620 colon) | GI50 (HL-60(TB) leukemia) | TGI (HL-60(TB) leukemia) | GI50 (DU-145 prostate) | TGI (DU-145 prostate) | GI50 (T-47D breast) | TGI (T-47D breast) | GI50 (LOX IMVI melanoma) | TGI (LOX IMVI melanoma) | GI50 (SNB-75 CNS) | TGI (SNB-75 CNS) | GI50 (NCI-H23 lung) | TGI (NCI-H23 lung) |
| --- | --- | --- | --- | --- | --- | --- | --- | --- | --- | --- | --- | --- | --- | --- | --- | --- | --- | --- | --- | --- |
| Cc1ccc(-c2nc3nc(-c4ccc(F)cc4)nc(N4CCNCC4)c3o2)cc1 | 10.6 µM | 26.7 µM | 1.86 µM | 3.5 µM | 2.06 µM | 5.12 µM | 1.76 µM | 3.61 µM | 1.91 µM | 4.3 µM | 2.6 µM | 6.45 µM | 2.3 µM | 6.92 µM | 1.66 µM | 3.07 µM | 11.6 µM | 23.9 µM | 12 µM | 27.6 µM |
| COc1cc2c3c(n(CCCN4CCNCC4)c(=O)c2cc1OC)-c1cc2c(cc1C3=O)OCO2 | 0.127 µM | 3.71 µM | 1.22 µM | 4.35 µM | 1.26 µM | 16.2 µM | 0.0613 µM | 6.32 µM | 0.00886 µM | 0.746 µM | 0.0439 µM | 1.02 µM | 2.54 µM | 21.3 µM | 0.0732 µM | 0.757 µM | 1.44 µM | 11.1 µM | 0.104 µM | 1.47 µM |
| CCc1ccccc1NC(=O)C(C#N)C1=C(Cl)C(=O)c2ccccc2C1=O (stereo unspecified) |  | 30.4 µM |  | > 100 µM |  | 60.6 µM |  | 44 µM |  | 83.3 µM |  | 32.2 µM |  | 52.4 µM |  | 26.9 µM |  | 35.4 µM |  | 29.5 µM |
| O=C1Nc2ccccc2/C1=C\c1c(-c2ccccc2)nc2sccn12 | 4.27 µM | 23 µM | 0.506 µM | 1.93 µM | 5.58 µM | 18.7 µM | 2.16 µM | 27.1 µM | 0.999 µM | 7.33 µM | 7.31 µM | 31.1 µM | 2.65 µM | > 33 µM | 2.09 µM | 13.8 µM | 6.74 µM | 28.4 µM | 1.63 µM | 4.18 µM |
| CCN1CCC(CC(=O)Nc2n[nH]c3nnc(-c4cccc(F)c4F)cc23)CC1 | 22.5 µM | > 25 µM | 3.65 µM | > 25 µM | > 19.9 µM | > 25 µM | > 25 µM | > 25 µM | > 25 µM | > 25 µM | > 25 µM | > 25 µM | > 25 µM | > 25 µM | > 25 µM | > 25 µM |  | > 25 µM | > 25 µM | > 25 µM |
| COc1cc(-c2cc3ncccc3c3nc(OCCN(C)C)c4cccnc4c23)cc(OC)c1OC | 0.623 µM | 2.46 µM | 0.64 µM | 3.09 µM | 1.5 µM | 14.9 µM | 0.324 µM | 15.2 µM | 1.25 µM | 4.73 µM | 0.5 µM | > 100 µM | 0.769 µM | 37 µM | 0.275 µM | 1.26 µM | 0.414 µM | 2.2 µM | 0.619 µM | 3.31 µM |
| CS(=O)(=O)CCNCc1ccc(-c2ccc3ncnc(Nc4ccc(OCc5cccc(F)c5)c(Cl)c4)c3c2)o1 | > 10 µM and > 100 µM and 25 µM | > 10 µM and > 100 µM and 86.7 µM | > 10 µM and 3.54 µM and 8.01 µM | > 10 µM and 52.6 µM and 24.2 µM | > 10 µM and 8.49 µM and 8.64 µM | > 10 µM and > 53.7 µM and 57.6 µM | > 10 µM and 1.94 µM and 3.82 µM | > 10 µM and 3.6 µM and 9.46 µM |  | > 10 µM and > 100 µM and 23.6 µM | 7.11 µM and 2.61 µM and 6.75 µM | > 10 µM and > 100 µM and 34.8 µM |  | > 10 µM and > 100 µM and 37.6 µM | 8.23 µM and 1.79 µM and 4.19 µM | > 10 µM and 3.35 µM and 10.1 µM | > 10 µM and 4.33 µM and 8.75 µM | > 10 µM and 35.5 µM and 44.2 µM | > 10 µM and 7.82 µM and 10.4 µM | > 10 µM and > 100 µM and 31.1 µM |
| Cc1ccccc1C1=C(c2cn(C)c3ccccc23)C(=O)NC1=O | 11.6 µM | > 25 µM | 10.8 µM | > 25 µM | 10 µM | > 25 µM | 12.1 µM | > 25 µM | 10.8 µM | > 25 µM | 23.7 µM | > 25 µM | 17.8 µM | > 25 µM | 14.9 µM | > 25 µM | 0.644 µM | > 25 µM | > 25 µM | > 25 µM |
| COc1cc(OC)cc(Oc2cnc3cc(N)cc(N)c3n2)c1 | 17.1 µM | 38 µM | 1.83 µM | 10.5 µM | 24.7 µM | 87.8 µM | 18.6 µM | 43.7 µM | 5.68 µM | 28 µM | 17.6 µM | 38.5 µM | 13.6 µM | 42.4 µM | 11.5 µM | 24 µM | 3.92 µM | 18.6 µM | 14.6 µM | 28.8 µM |
| O=[N+]([O-])c1ccc(/C=C/c2nc3ccc(Cl)cc3[nH]2)cc1 | 45.9 µM | > 100 µM | 22.4 µM | 65.1 µM | 68.2 µM | > 100 µM | 28.7 µM | > 100 µM | > 100 µM | > 100 µM | 19.4 µM | 66.6 µM | 28.8 µM | > 100 µM | 27.2 µM | > 100 µM | 76.9 µM | > 100 µM | 54.5 µM | > 100 µM |
| O=C([O][Hg][c]1ccccc1)c1ccccc1 | 2.41 µM | 6.18 µM | 0.298 µM | 0.843 µM | 1.1 µM | 5.87 µM | 0.943 µM | 2.63 µM | 0.325 µM | 1.86 µM | 1.95 µM | 4.13 µM | 0.475 µM | 2.43 µM | 1.38 µM | 3.05 µM | 1.23 µM | 3.63 µM | 2.05 µM | 4.84 µM |
| CC(=O)OCC12CN(C#N)C3C4COC(CC41)C1(C(=O)N(C)c4ccccc41)C32 (stereo unspecified) |  | 49.5 µM |  | 14.7 µM |  | 55.9 µM |  | 59.6 µM |  | 30.7 µM |  | 37.7 µM |  | 62.7 µM |  | 49.1 µM |  | 91.4 µM |  | 44.6 µM |
| CC1=C/C=C/C(=O)O[C@@H]([C@H](C)[C@H](O)[C@@H](C)NC(=O)C(C)C)[C@H](C)/C=C/C(C)=C/[C@H]2C=CCC[C@@]2(C)\C=C\1 | 2.48 µM and 0.582 µM | 10 µM | 2.77 µM and 1.77 µM | 9.33 µM | 6.73 µM and 1.9 µM | > 42.3 µM | 0.705 µM and 0.303 µM | 8.9 µM | 0.744 µM and 0.747 µM | 9.12 µM and 13.7 µM | 4.64 µM and 0.652 µM | 8.98 µM | 0.112 µM and 0.132 µM | 36.6 µM | 0.0479 µM and 0.0688 µM | 0.307 µM and 0.178 µM |  | > 42.3 µM | 1.75 µM and 1.49 µM | 15.2 µM |
| Fc1cc(F)c(F)c(S)c1F |  | > 100 µM |  | > 100 µM |  | > 100 µM |  | > 100 µM |  | > 100 µM |  | > 100 µM |  | > 100 µM |  | > 100 µM |  | > 100 µM |  | > 100 µM |
| Cc1ccc(C)c2c1C(=O)N(c1ccc(F)cc1F)C2=O | > 100 µM | > 100 µM | > 100 µM | > 100 µM | > 100 µM | > 100 µM | > 100 µM | > 100 µM | > 100 µM | > 100 µM | > 100 µM | > 100 µM | 74.5 µM | > 100 µM | > 100 µM | > 100 µM | > 100 µM | > 100 µM | > 100 µM | > 100 µM |
| ClCCCSSCCCCl |  | > 100 µM |  | 97.1 µM |  | 64.9 µM |  | > 100 µM |  | 16 µM |  | > 100 µM |  | > 100 µM |  | > 81.9 µM |  | > 100 µM |  | > 100 µM |
| COC(=O)C1=COC2OC3C(C(C)O)C(=O)OC34C=CC1C24 (stereo unspecified) |  | > 100 µM |  | > 100 µM |  | > 100 µM |  | > 100 µM |  | 39.7 µM |  | > 100 µM |  | > 100 µM |  | > 100 µM |  | > 100 µM |  | > 100 µM |
| COc1ccc(-c2cc(/C=C3\C(=O)Nc4cc(Cl)ccc43)[nH]n2)cc1 | 13.1 µM | 98.6 µM | 2.59 µM | 8.48 µM | 2.9 µM | 35 µM | 2.57 µM | > 100 µM | 2.26 µM | 6.33 µM | 3.52 µM | 21.4 µM | 6.6 µM | > 100 µM | 4.36 µM | > 100 µM | 1.78 µM | 6.96 µM | 4.27 µM | > 100 µM |
| Cn1cc(C2=C(c3c4n(c5ccccc35)CCNC4)C(=O)NC2=O)c2ccccc21 | 13.8 µM | > 25 µM | 5.42 µM | > 21.7 µM | 4.14 µM | > 20.5 µM | 6.92 µM | > 25 µM | 3.92 µM | > 25 µM | 12.6 µM | > 25 µM | > 21.2 µM | > 25 µM | 11.3 µM | > 25 µM | 1.04 µM | 12 µM | 24.5 µM | > 25 µM |

From PubChem BioAssay (NCI)
